Entries after “also recorded” stand apart in the source; their conditions may differ.
Tested on: RAC3 message
Experiment: Northern blot analysis of RAC3 expression in HL-60 cells
Format: cell-based, human
Method: The expression of RAC3 was examined with Northern blot analysis using standard methods. A single message of about 7.5 kb was detected in human HL60 cells as well as in mouse embryonic tissues. […] Thus, a positive feedback regulatory network may operate in which RAC3 binding to RA-RAR complex activates transcription which, in turn, increases transcription of RAC3.
Cells were treated with different concentration of RA (0, 10, 100, 1000 nM) for a period of 12 hours. In the control group, cells were treated with equal volume of solvent (80% EtOH plus 20% DMSO). Total RNAs were isolated using an RNA isolation kit (RNAzol) and separated on a 1% agarose gel with 2.2 M formaldehyde and blotted onto nylon filters. Filters were hybridized with random-primed ^32P-labeled DNA probes specific for RAC3, Tw2, and SRC1 in hybridization buffer (50% formamide, SX SSPE [1×SSPE is 0.18 M NaCl, 10 mM NaPO4, and 1 mM EDTA at pH 7.7], 2× Denhardt solution, 0.1% SDS, 0.1 mg of sheared herring sperm DNA per ml) at 42° C. overnight. […]
The expression patterns of RAC3 in different human tissues and cancer cells were examined and compared with that of SRC-1 and TIF2. […] Total RNA (20 μg) of HL-60 cells treated with indicated concentrations of atRA for 12 hours or with 1 μM tRA plus 10 μM cycloheximide (CHX) were analyzed for RAC3 message by Northem blot analysis. […]

In the case of `CC1=C(/C=C/C(C)=C/C=C/C(C)=C/C(=O)O)C(C)(C)CCC1` [atRA, all-trans retinoic acid], the “expression of RAC3” value (HL60 cells treated with atRA) is reported as “up-regulated; also recorded: significantly enhances”.

For `C[C@@H]1C[C@@H]([C@H](O)CC2CC(=O)NC(=O)C2)C(=O)[C@@H](C)C1` [cycloheximide], the “effect on stimulation of RAC3 expression by atRA” value (HL60 cells, addition of cycloheximide) was “does not have an effect”.

From patent US7132258B1, “Nucleic acid encoding vitamin D receptor related polypeptide” (University of Massachusetts, priority 1998, dated 2006)
